Where two headings read alike, the source gives them in different places.
System: hepatic genes (liver)
Description: While the molecular target for PPARγ is not in the liver, it represents the effects of changes in metabolism of the whole animal, which impact liver lipoprotein production and clearance.
Male Sprague-Dawley (Crl:CD® (SD)(IGS)BR) rats (Charles River Laboratories, Portage, Mich.), weight matched, 7 to 8 weeks of age, were housed individually in hanging, stainless steel, wire-bottom cages in a temperature (66-77° F.), light (12-hour dark/light cycle) and humidity (30-70%) controlled room. Water and rodent diet were available ad libitum throughout the 5 day acclimatization period and during the 5 day treatment period. Housing and treatment of the animals were in accordance with regulations outlined in the USDA Animal Welfare Act (9 CFR Parts 1, 2 and 3).
Rats (three per group) were dosed daily at either a low or high dose. […] Animals were necropsied on days 0.25, 1, 3, and 5. Up to 13 tissues (e.g., liver, kidney, heart, bone marrow, blood, spleen, brain, intestine, glandular and nonglandular stomach, lung, muscle, and gonads) were collected for histopathological evaluation and microarray expression profiling on the Affymetrix Rat Whole Genome RG230 v2 platform. In addition, a clinical pathology panel consisting of 37 clinical chemistry and hematology parameters was generated from blood samples collected on days 3 and 5.
Gene expression profiling, data processing and quality control were performed using protocols recommended by. Briefly, liver samples from 3 rats were chosen at random from each treatment and control group for each timepoint for expression profile analysis on the Affymetrix Rat Whole Genome RG230 v2 microarray (Affymetrix, Santa Clara, Calif.). Log transformed signal data for all probes were array-wise normalized using the Affymetrix MASS algorithm. Expression log ratios of base 10 (log(10) ratios) were computed as the difference between the logs of the averaged normalized experimental signals and the averaged normalized time-matched vehicle control signals for each gene.

CCc1ccc(CCOc2ccc(CC3SC(=O)NC3=O)cc2)nc1 (stereo not drawn) [pioglitazone]
Average Log (10) Ratio: L-3-hydroxyacyl-Coenzyme A dehydrogenase, short chain (rat liver, probe AA891362, Rn.92789, oral gavage, experiments of Table 3): 0.375 | Average Log (10) Ratio: acetyl-coenzyme A acetyltransferase 1 (rat liver, probe AA899304, Rn.4054, oral gavage, experiments of Table 3): 0.171 | Average Log (10) Ratio: transferrin (rat liver, probe AA945548, Rn.91296, oral gavage, experiments of Table 3): −0.222 | Average Log (10) Ratio: sterol regulatory element binding factor 1 (rat liver, probe AF286470, Rn.801, oral gavage, experiments of Table 3): −0.118 | Average Log (10) Ratio: CCAAT/enhancer binding protein (C/EBP), delta (rat liver, probe AI176576, Rn.6975, oral gavage, experiments of Table 3): −0.035 | Average Log (10) Ratio: fatty acid synthase (rat liver, probe AI179334, Rn.9486, oral gavage, experiments of Table 3): −0.411 | Average Log (10) Ratio: peroxisome proliferator activated receptor alpha (rat liver, probe AI385341, Rn.9753, oral gavage, experiments of Table 3): 0.247 | Average Log (10) Ratio: perilipin (rat liver, probe AI406700, Rn.9737, oral gavage, experiments of Table 3): −0.187 | Average Log (10) Ratio: monoglyceride lipase (rat liver, probe AI713204, Rn.40396, oral gavage, experiments of Table 3): −0.118 | Average Log (10) Ratio: phosphatidylinositol 3-kinase, C2 domain containing, gamma polypeptide (rat liver, probe AW526669, Rn.169550, oral gavage, experiments of Table 3): −0.240 | Average Log (10) Ratio: monoglyceride lipase (rat liver, probe AY081195, Rn.40396, oral gavage, experiments of Table 3): −0.131 | Average Log (10) Ratio: mitogen-activated protein kinase 8 (rat liver, probe BE105603, Rn.4090, oral gavage, experiments of Table 3): 0.332 | Average Log (10) Ratio: ELOVL family member 6, elongation of long chain fatty acids (yeast) (rat liver, probe BF396857, Rn.46942, oral gavage, experiments of Table 3): −0.225 | Average Log (10) Ratio: sterol regulatory element binding factor 1 (rat liver, probe BF398848, Rn.801, oral gavage, experiments of Table 3): −0.092 | Average Log (10) Ratio: RIKEN cDNA 1500016L11 (DBSS) (rat liver, probe BF407188, Rn.15135, oral gavage, experiments of Table 3): −0.149 | Average Log (10) Ratio: monoglyceride lipase (rat liver, probe BG372713, Rn.40396, oral gavage, experiments of Table 3): −0.110 | Average Log (10) Ratio: Pyruvate carboxylase (rat liver, probe BG376902, Rn.11094, oral gavage, experiments of Table 3): 0.300 | Average Log (10) Ratio: acetyl CoA transferase-like (DBSS) (rat liver, probe BG377636, Rn.98393, oral gavage, experiments of Table 3): 0.071 | Average Log (10) Ratio: phospholipid transfer protein (DBSS) (rat liver, probe BI278687, Rn.117434, oral gavage, experiments of Table 3): −0.045 | Average Log (10) Ratio: guanine nucleotide binding protein, alpha stimulating, olfactory type (rat liver, probe BI281656, Rn.39132, oral gavage, experiments of Table 3): −0.386 | Average Log (10) Ratio: acetyl-Coenzyme A acyltransferase 2 (mitochondrial 3-oxoacyl-Coenzyme A thiolase) (rat liver, probe BI282488, Rn.3786, oral gavage, experiments of Table 3): 0.046 | Average Log (10) Ratio: glycerol-3-phosphate acyltransferase, mitochondrial (rat liver, probe BI288209, Rn.44456, oral gavage, experiments of Table 3): −0.319 | Average Log (10) Ratio: elongation of very long chain fatty acids (FEN1/Elo2, SUR4/Elo3, yeast)-like 3 (DBSS) (rat liver, probe BI292438, Rn.79322, oral gavage, experiments of Table 3): 0.334 | Average Log (10) Ratio: NCI_CGAP_Emb2 cDNA clone IMAGE: 4176354 (rat liver, probe BI850137, Rn.83595, oral gavage, experiments of Table 3): 0.315 | Average Log (10) Ratio: pyruvate dehydrogenase kinase, isoenzyme 3 (mapped) (rat liver, probe BM389330, Rn.18101, oral gavage, experiments of Table 3): −0.142 | Average Log (10) Ratio: 3-hydroxy-3-methylglutaryl-Coenzyme A reductase (rat liver, probe BM390399, Rn.9437, oral gavage, experiments of Table 3): −0.018 | Average Log (10) Ratio: sulfotransferase family 2A, dehydroepiandrosterone (DHEA)-preferring, member 1 (rat liver, probe D14989, Rn.91378, oral gavage, experiments of Table 3): 0.112 | Average Log (10) Ratio: apolipoprotein E (rat liver, probe J02582, Rn.32351, oral gavage, experiments of Table 3): 0.410 | Average Log (10) Ratio: stearoyl-Coenzyme A desaturase 1 (rat liver, probe J02585, Rn.1023, oral gavage, experiments of Table 3): 0.056 | Average Log (10) Ratio: apolipoprotein B (rat liver, probe M14952, Rn.33815, oral gavage, experiments of Table 3): −0.303 | Average Log (10) Ratio: NCI_CGAP_Emb2 cDNA clone IMAGE: 4176354 (rat liver, probe M15114, Rn.83595, oral gavage, experiments of Table 3): 0.052 | Average Log (10) Ratio: malic enzyme 1 (rat liver, probe M30596, Rn.161920, oral gavage, experiments of Table 3): −0.083 | Average Log (10) Ratio: glucokinase (rat liver, probe NM_012565, Rn.10447, oral gavage, experiments of Table 3): −0.220 | Average Log (10) Ratio: serine (or cysteine) peptidase inhibitor, clade E, member 1 (rat liver, probe NM_012620, Rn.29367, oral gavage, experiments of Table 3): 0.049 | Average Log (10) Ratio: adrenergic receptor, beta 1 (rat liver, probe NM_012701, Rn.87064, oral gavage, experiments of Table 3): 0.205 | Average Log (10) Ratio: hexokinase 2 (rat liver, probe NM_012735, Rn.91375, oral gavage, experiments of Table 3): 0.300 | Average Log (10) Ratio: guanylate cyclase 1, soluble, beta 3 (rat liver, probe NM_012769, Rn.87228, oral gavage, experiments of Table 3): −0.120 | Average Log (10) Ratio: guanylate cyclase 1, soluble, beta 2 (rat liver, probe NM_012770, Rn.10933, oral gavage, experiments of Table 3): −0.120 | Average Log (10) Ratio: mitogen activated protein kinase 10 (rat liver, probe NM_012806, Rn.9911, oral gavage, experiments of Table 3): 0.229 | Average Log (10) Ratio: carnitine palmitoyltransferase 2 (rat liver, probe NM_012930, Rn.11389, oral gavage, experiments of Table 3): 0.030 | Average Log (10) Ratio: 3-hydroxy-3-methylglutaryl-Coenzyme A reductase (rat liver, probe NM_013134, Rn.9437, oral gavage, experiments of Table 3): 0.086 | Average Log (10) Ratio: transforming growth factor, beta 3 (rat liver, probe NM_013174, Rn.7018, oral gavage, experiments of Table 3): −0.086 | Average Log (10) Ratio: carnitine palmitoyltransferase 1b, muscle (rat liver, probe NM_013200, Rn.6028, oral gavage, experiments of Table 3): 0.125 | Average Log (10) Ratio: solute carrier family 10, member 2 (rat liver, probe NM_017222, Rn.85891, oral gavage, experiments of Table 3): −0.206 | Average Log (10) Ratio: mitogen-activated protein kinase 9 (rat liver, probe NM_017322, Rn.9910, oral gavage, experiments of Table 3): −0.209 | Average Log (10) Ratio: acyl-Coenzyme A oxidase 1, palmitoyl (rat liver, probe NM_017340, Rn.31796, oral gavage, experiments of Table 3): 0.165 | Average Log (10) Ratio: transforming growth factor, beta 1 (rat liver, probe NM_021578, Rn.40136, oral gavage, experiments of Table 3): −0.047 | Average Log (10) Ratio: protein kinase, AMP-activated, beta 2 non-catalytic subunit (rat liver, probe NM_022627, Rn.15423, oral gavage, experiments of Table 3): −0.432 | Average Log (10) Ratio: transforming growth factor, beta 2 (rat liver, probe NM_031131, Rn.24539, oral gavage, experiments of Table 3): −0.378 | Average Log (10) Ratio: carnitine palmitoyltransferase 1a, liver (rat liver, probe NM_031559, Rn.2856, oral gavage, experiments of Table 3): 0.341 | Average Log (10) Ratio: protein kinase, AMP-activated, beta 1 non-catalytic subunit (rat liver, probe NM_031976, Rn.3619, oral gavage, experiments of Table 3): −0.188 | Average Log (10) Ratio: ATP-binding cassette, sub-family D (ALD), member 1 (DBSS) (rat liver, probe NM_033352, Rn.177278, oral gavage, experiments of Table 3): 0.292 | Average Log (10) Ratio: insulin-like growth factor binding protein, acid labile subunit (rat liver, probe NM_053329, Rn.164865, oral gavage, experiments of Table 3): −0.263 | Average Log (10) Ratio: pyruvate dehydrogenase kinase, isoenzyme 4 (rat liver, probe NM_053551, Rn.30070, oral gavage, experiments of Table 3): −0.148 | Average Log (10) Ratio: phosphatidylinositol 3-kinase, C2 domain containing, gamma polypeptide (rat liver, probe NM_053923, Rn.169550, oral gavage, experiments of Table 3): −0.055 | Average Log (10) Ratio: pyruvate dehydrogenase E1 alpha 2 (rat liver, probe NM_053994, Rn.11126, oral gavage, experiments of Table 3): −0.171 | Average Log (10) Ratio: nuclear receptor subfamily 0, group B, member 2 (rat liver, probe NM_057133, Rn.10712, oral gavage, experiments of Table 3): 0.034 | Average Log (10) Ratio: hydroxyacyl-Coenzyme A dehydrogenase/3-ketoacyl-Coenzyme A thiolase/enoyl-Coenzyme A hydratase (trifunctional protein), beta subunit (rat liver, probe NM_133618, Rn.11253, oral gavage, experiments of Table 3): 0.182 | Average Log (10) Ratio: ELOVL family member 5, elongation of long chain fatty acids (yeast) (rat liver, probe NM_134382, Rn.4243, oral gavage, experiments of Table 3): −0.191 | Average Log (10) Ratio: Glycerol-3-phosphate dehydrate dehydrogenase (mtGPDH) mRNA, 3′UTR (rat liver, probe U08027, Rn.89705, oral gavage, experiments of Table 3): 0.026 | Average Log (10) Ratio: glycerol-3-phosphate acyltransferase, mitochondrial (rat liver, probe U36771, Rn.44456, oral gavage, experiments of Table 3): −0.239 | Average Log (10) Ratio: Cytochrome P450, family 2, subfamily b, polypeptide 2 (rat, in vivo, po): 0.275 | Average Log (10) Ratio: cytochrome P450, family 2, subfamily b, polypeptide 13 (rat, in vivo, po): −0.015 | Average Log (10) Ratio: cytochrome P450, family 3, subfamily a, polypeptide 13 (rat, in vivo, po): −0.242 | Average Log (10) Ratio: cytochrome P450, family 7, subfamily a, polypeptide 1 (rat, in vivo, po): 0.320 | Average Log (10) Ratio: cytochrome P450, family 8, subfamily b, polypeptide 1 (rat, in vivo, po): 0.351

Reference: patent US20100120050A1, “Biomarkers For Assessing Altherosclerotic Potential” (ENTELOS, INC., priority 2008, published 2010)
